14 compounds from patent publication US6034134A, “1-Amino-alkylcyclohexane NMDA receptor antagonists” (Merz + Co. GmbH & Co., priority 1998, dated 2000) can be followed below.

Like-named read-outs stand apart in the source and are kept apart here. Some results are limits rather than exact numbers.

Series [1] concerns cortical neurones. Nature of the series: Excitotoxicity: glutamate toxicity in cultured cortical neurones (MTT). The format is cell-based, rat. As to conditions: for IC50: Rattus norvegicus, Cortical neurone. Summed up:
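Fetal Wistar rat cortical neurones (day 12-14 in culture, astrocyte-conditioned medium) exposed 20 h to 100 μM glutamate plus test drug in serum-free Neurobasal medium. Viability by MTT reduction read at 570 nm; IC50 by four-parameter logistic fit.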

A short description of series [2]: Maximal electroshock (MES)-induced convulsions in mice. The format is in vivo. As to conditions: for ED50: Mus musculus; for MES ED50: 30 min. Summed up: (§1)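 Female NMR mice (18-28 g) received compounds in 0.9% saline, then traction reflex and rotarod (5 rpm, 1 min) tests preceded corneal MES (100 Hz, 0.5 s, 50 mA). Tonic hind-paw extension scored; ED50 values by Litchfield-Wilcoxon, therapeutic index = side-effect ED50 / anti-MES ED50.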
(In general: The maximal electroshock test induces tonic seizures with an electrical stimulus.)

In series [3] the target is NMDA receptor. Description: [3H]-(+)-MK-801 binding to rat cortical membranes. As to conditions: for Ki: read-out: MK-801 Ki, Table 9, Cheng-Prusoff with Kd for MK-801 of […]; for IC50: read-out: [3H] MK-801 IC50, Table 7, footnote calls the values Ki. The gist of the method: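 Washed cortical membranes from male Sprague-Dawley rats, 250-500 μg/ml protein, incubated in 50 mM Tris-HCl pH 8.0; bound radioligand separated by rapid glass fiber filtration and counted by liquid scintillation.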

A short description of series [4]: Traction reflex test (myorelaxant action) in mice, therapeutic index versus MES. It is filed as in vivo. As to conditions: ED50 for traction reflex impairment divided by ED50 for MES; for TI Tract: 30 min; for selectivity ratio at 0.5 h: mouse, in vivo, ip, read-out: TI Tract. The gist of the method:
as §1

How the values of series [5] were obtained: All animals were kept with water and food ad libitum under a 12 hour light-dark cycle (light on at 6 a.m.) and at a controlled temperature (20±0.5° C.). All e experiments were performed between 10 a.m. and 5 p.m. Tested agents were injected 30 min. i.p. before the induction of convulsions if not stated otherwise (see below). All compounds were dissolved in 0.9% saline.

The mark [6] stands for this setting: Table 7, 100 μM glutamate, 20 h, read-out: Glut. Tox. IC50.
Where [7] appears, read: Table 9, 100 μM glutamate, read-out: Glut Tox IC50.
Setting [8] is: ip, 0.5 h, Table 7, mice, i.p., 30 min before, read-out: MES ED50.
The mark [9] stands for this setting: ip, 0.5 h, Table 8, mice, i.p., 95% confidence limits in parentheses, read-out: MES ED50.
Setting [10] is: 20 h, read-out: Glut. Tox. IC50.
[11] abbreviates: Table 8, mice, i.p., 95% confidence limits in parentheses.

A word on the IC50: it is the concentration needed to halve the response being measured. As usually defined, the Ki is a dissociation constant, usually derived from enzyme kinetics or from competition with a known ligand. Turning to `CC1(C)CC(C)(C)CC(C)(N)C1` [Mrz 2/579, 1-amino-1,3,3,5,5-pentamethylcyclohexane], the “neuroprotection in vitro (in words)” value in series [1] is reported as “most potent”. Besides, the IC50 in series [1] (setting [6]) came out at 2.2 µM; in series [1] (setting [7]), 2.16 µM; in series [3], 1.9 µM. Moreover, the ED50 was found to be 3.6 mg/kg in series [2] (setting [8]); 3.6 mg/kg in series [2] (setting [9]); 2.5 mg/kg in series [2] (iv, read-out: ED50 (anticonvulsive) following i.v. administration); 13.7 mg/kg in series [2] (po, read-out: ED50 (anticonvulsive) following p.o. administration); 4.6 mg/kg in series [2] (sc, read-out: ED50 (anticonvulsive) following s.c. administration). For the same compound, the Ki in series [3] worked out at 1.47 µM. Further, the “TI Tract” value in series [4] came out at 2.9. Moreover, in series [5] (i.p., minimal lethal dose), the “Min Lethality” value was determined as 108 mg/kg.
Consider `CC1(C)CC(CN)CC(C)(C)C1.Cl` [Mrz 2/580, 3,3,5,5-tetramethylcyclohexylmethylamine hydrochloride], for which the 50% inhibitory concentration (IC50) in series [1] (setting [6]) came out at 5.6 µM; in series [1] (setting [7]), 5.6 µM; in series [3] it was 15.9 µM. Further, the ED50 in series [2] (setting [8]) and in series [2] (setting [9]) was 27.3 mg/kg throughout. In addition, the Ki in series [3] came to 17.8 µM. Besides, the “TI Tract” value in series [4] turned out to be 1.6. For the same compound, the “Min Lethality” value in series [5] (i.p., minimal lethal dose) is 50 mg/kg.
In the case of `CCC1(N)CC(C)(C)CC(C)(C)C1` [Mrz 2/600, 1-amino-1-ethyl-3,3,5,5-tetramethylcyclohexane], the IC50 came to 2.1 µM in series [1] (setting [6]), 2.1 µM in series [1] (setting [7]) and 2.4 µM in series [3]. Besides, the ED50 in series [2] (setting [8]) and in series [2] (setting [9]) was 22.6 mg/kg throughout. In series [3], the Ki stood at 2.28 µM. The “TI Tract” value in series [4] was determined as 0.6. Also, the “Min Lethality” value in series [5] (i.p., minimal lethal dose) is 50 mg/kg.
Turning to `CCCC1(N)CC(C)(C)CC(C)(C)C1` [Mrz 2/601, 1-amino-1-propyl-3,3,5,5-tetramethylcyclohexane], the IC50 in series [1] (setting [10]) worked out at 3.5 µM; in series [1] (read-out: Glut Tox IC50) it was 3.5 µM; in series [3], 7.4 µM. In series [2] (ip, 0.5 h, read-out: MES ED50), the ED50 was found to be 15.6 mg/kg. The “MES ED50” value in series [2] (setting [11]) is given as 15.6 (10.4-23.4) mg/kg. Also, the Ki in series [3] came out at 8.09 µM. For the same compound, the “TI Tract” value in series [4] came out at 1.5. In addition, in series [5] (i.p., minimal lethal dose), the “Min Lethality” value is given as 50 mg/kg.
For the compound `CCCC1(C)CC(C)(C)CC(C)(N)C1` (centres unmarked) [Mrz 2/614], the IC50 was over 10 µM in series [1] (setting [6]), 1.26 µM in series [1] (setting [7]) and 13.6 µM in series [3]. Moreover, the ED50 in series [2] (setting [8]) and in series [2] (setting [9]) was 23.5 mg/kg each time. In series [3], the Ki came out at 13.6 µM. The selectivity ratio at 0.5 h in series [4] was 1.9. In addition, the “Min Lethality” value in series [5] (mouse, in vivo, ip) is given as over 50 mg/kg.
As to `CCC1(C)CC(C)(C)CC(C)(N)C1` (centres unmarked) [Mrz 2/615, 1-amino-1,3,5,5-tetramethyl-3-ethylcyclohexane], the IC50 was found to be 2.3 µM in series [1] (setting [6]), 2.29 µM in series [1] (setting [7]) and 2.5 µM in series [3]. Besides, the ED50 in series [2] (setting [8]) and in series [2] (setting [9]) was 6.1 mg/kg each time. In addition, the Ki in series [3] was 2.42 µM. Besides, in series [4], the “TI Tract” value was found to be 2.5. Also, the “Min Lethality” value in series [5] (i.p., minimal lethal dose) was over 50 mg/kg.
Turning to `CC1CC(C)CC(C)(N)C1` (centres unmarked) [Mrz 2/616, 1-amino-1,3,5-trimethylcyclohexane], the results for the IC50 in series [1] (setting [6]), in series [1] (setting [7]) and in series [3] were 9.1 µM, 9.1 µM and 15 µM, respectively. Further, the ED50 in series [2] (setting [8]) and in series [2] (setting [9]) was 24 mg/kg throughout. The Ki in series [3] was 10.4 µM. Besides, in series [4], the “TI Tract” value is given as 1.0. In series [5] (i.p., minimal lethal dose), the “Min Lethality” value is on record as over 50 mg/kg.
For `CCC1(C)CCCC(C)(N)C1` (centres unmarked) [Mrz 2/620], the IC50 worked out at 38.4 µM in series [1] (setting [6]), 38.4 µM in series [1] (setting [7]) and 32.2 µM in series [3]. Also, the ED50 in series [2] (setting [8]) and in series [2] (setting [9]) was 41.3 mg/kg each time. The Ki in series [3] stood at 25.5 µM. For the same compound, the selectivity ratio at 0.5 h in series [4] turned out to be 1.6. For the same compound, the “Min Lethality” value in series [5] (mouse, in vivo, ip) is given as over 50 mg/kg.
Turning to `CC1(C)CCCC(C)(N)C1` (centres unmarked) [Mrz 2/621], the IC50 in series [1] (setting [10]) was over 100 µM; in series [1] (read-out: Glut Tox IC50) it was over 100 µM; in series [3], 36.7 µM. For the same compound, the ED50 in series [2] (ip, 0.5 h, read-out: MES ED50) was 36.9 mg/kg. Further, in series [2] (setting [11]), the “MES ED50” value was 36.9 (22.6-60.3) mg/kg. For the same compound, in series [3], the Ki was 32.2 µM. For the same compound, the selectivity ratio at 0.5 h in series [4] worked out at 1.8. The “Min Lethality” value in series [5] (i.p., minimal lethal dose) is on record as over 60 mg/kg.
As for `CCC1(CC)CC(C)(C)CC(C)(N)C1` (centres unmarked) [Mrz 2/623, 1-amino-1,5,5-trimethyl-3,3-diethylcyclohexane], the results for the concentration for half-maximal inhibition (IC50) in series [1] (setting [6]), in series [1] (setting [7]) and in series [3] were 4.5 µM, 4.5 µM and 3.3 µM, respectively. The ED50 in series [2] (setting [8]) and in series [2] (setting [9]) was 13.1 mg/kg throughout. Moreover, the Ki in series [3] was found to be 3.16 µM. Moreover, in series [4], the “TI Tract” value is recorded as 1.4. Besides, the “Min Lethality” value in series [5] (i.p., minimal lethal dose) is over 30 mg/kg.
Take `CCCC1(CCC)CC(C)(C)CC(C)(N)C1` (centres unmarked) [Mrz 2/626]: the results for the IC50 in series [1] (setting [6]), in series [1] (setting [7]) and in series [3] were 19 µM, 19 µM and 11.6 µM, respectively. Further, the ED50 in series [2] (setting [8]) and in series [2] (setting [9]) was 41.2 mg/kg throughout. Moreover, the Ki in series [3] was 16.5 µM. Also, the selectivity ratio at 0.5 h in series [4] turned out to be 1.1. Further, the “Min Lethality” value in series [5] (mouse, in vivo, ip) was over 50 mg/kg.
As to `CCNC1(C)CC(C)(C)CC(C)(C)C1` [Mrz 2/639, N-ethyl-1-amino-1,3,3,5,5-pentamethylcyclohexane], the IC50 was determined as 5.7 µM in series [1] (setting [6]), 6.33 µM in series [1] (setting [7]) and 3.3 µM in series [3]. Further, the figures for the ED50 in series [2] (setting [8]) and in series [2] (setting [9]) were 5.5 mg/kg and 5.87 mg/kg, respectively. Besides, in series [3], the Ki is 4.17 µM. Further, in series [4], the “TI Tract” value is on record as 2.6. For the same compound, the “Min Lethality” value in series [5] (i.p., minimal lethal dose) came to 30 mg/kg.
On to `CNC1(C)CC(C)(C)CC(C)(C)C1.Cl` [Mrz 2/640, N,1,3,3,5,5-hexamethylcyclohexanamine hydrochloride], for which the IC50 was determined as 8.3 µM in series [1] (setting [6]), 8.35 µM in series [1] (setting [7]) and 3.7 µM in series [3]. The ED50 was 8.2 mg/kg in series [2] (setting [8]) and 8.18 mg/kg in series [2] (setting [9]). Also, in series [3], the inhibitory constant (Ki) is 4.83 µM. Moreover, the “TI Tract” value in series [4] is recorded as 2.3. For the same compound, the “Min Lethality” value in series [5] (i.p., minimal lethal dose) stood at 108 mg/kg.
Turning to `CC1(C)CC(CCN)CC(C)(C)C1` [Mrz 2/644], the IC50 in series [1] (setting [6]) was 4.3 µM; in series [1] (setting [7]), 4.3 µM; in series [3], 3.8 µM. Moreover, the ED50 in series [2] (setting [8]) and in series [2] (setting [9]) was 53 mg/kg throughout. In series [3], the Ki was 4.84 µM. The “TI Tract” value in series [4] came to 0.5. Besides, in series [5] (mouse, in vivo, ip), the “Min Lethality” value is over 35 mg/kg.
